Legend:
COVID-19 [1] = test: coronavirus capture (attachment) test on coated surfaces, crystal violet stain read by spectrophotometer; conditions: FIG. 1; virus capture by coated surfaces
COVID-19 [2] = test: coronavirus deactivation test after attachment to the surfaces, qPCR for genes indicative of COVID-19 activity; conditions: FIG. 2; compared among the antiviral coatings

Structure (SMILES)	SARS-Cov2 capture (COVID-19 [1])	potential to deactivate captured virus (COVID-19 [2])
CCCCCCCCCCCCCCCC[n+]1ccccc1 [CPC, Cetyl pyridinium chloride]	roughly 95%	–
CCCCCCCCCCCCCCCCCC[N+](C)(C)CCC[Si](OC)(OC)OC.[Cl-] [DMS, Dimethyloctadecyl[3-(trimethoxysilyl)propyl]ammonium chloride]	–	highest potential to deactivate
